Data reported in US20240140931A1, “TRICYCLIC COMPOUNDS AND USES THEREOF” (HUTCHMED LIMITED, priority 2021, published 2024).

Assays:
[1] = biological target: Human full-length SHP2 recombinant protein (Homo sapiens (Human), UniProt Q06124); assay: Assay of full-length SHP2 phosphatase activity; format: biochemical; settings: DiFMUP substrate, with activating peptide
Summary of the method: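 Readout: DiFMUP hydrolysis fluorescence (355/460 nm) after 60 min at 25 °C, following 30 min RT preincubation of compound with peptide-activated full-length human SHP2. Controls were 1% DMSO with or without enzyme; IC50 by four-parameter logistic fit.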

[2] = system: Miapaca2 3D spheroids; assay: Assay of cell proliferation on Miapaca2 3D spheroids; format: cell-based; settings: Homo sapiens, MIA PaCa-2, 120 h, CellTiter-Glo 3D, 5 days treatment
Summary of the method: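 Miapaca2 spheroids (300 cells/well, formed by day 2) exposed 5 days at 37 °C to compound in 3-fold dilution series, 0.1% DMSO final. Viability by CellTiter-Glo 3D luminescence; survival % relative to day-2 and day-7 DMSO controls, IC50 from four-parameter logistic fit.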

[3] = system: pERK1/2 (Thr202/Tyr204) in Miapaca2 cells; assay: Assay of intracellular pERK1/2 (Thr202/Tyr204) phosphorylation; format: cell-based; settings: Homo sapiens, MIA PaCa-2, 2 h, pERK1/2 (Thr202/Tyr204) HTRF
Summary of the method: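 HTRF read-out (665/615 nm) of phospho-ERK1/2 Thr202/Tyr204 in lysates from Miapaca2 cells exposed for 2 h to 3-fold compound dilutions at 0.5% final DMSO. Controls: lysis buffer without cells and DMSO-treated cells; IC50 from four-parameter logistic fit.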

Human full-length SHP2 recombinant protein, sequence (Q06124 whole entry): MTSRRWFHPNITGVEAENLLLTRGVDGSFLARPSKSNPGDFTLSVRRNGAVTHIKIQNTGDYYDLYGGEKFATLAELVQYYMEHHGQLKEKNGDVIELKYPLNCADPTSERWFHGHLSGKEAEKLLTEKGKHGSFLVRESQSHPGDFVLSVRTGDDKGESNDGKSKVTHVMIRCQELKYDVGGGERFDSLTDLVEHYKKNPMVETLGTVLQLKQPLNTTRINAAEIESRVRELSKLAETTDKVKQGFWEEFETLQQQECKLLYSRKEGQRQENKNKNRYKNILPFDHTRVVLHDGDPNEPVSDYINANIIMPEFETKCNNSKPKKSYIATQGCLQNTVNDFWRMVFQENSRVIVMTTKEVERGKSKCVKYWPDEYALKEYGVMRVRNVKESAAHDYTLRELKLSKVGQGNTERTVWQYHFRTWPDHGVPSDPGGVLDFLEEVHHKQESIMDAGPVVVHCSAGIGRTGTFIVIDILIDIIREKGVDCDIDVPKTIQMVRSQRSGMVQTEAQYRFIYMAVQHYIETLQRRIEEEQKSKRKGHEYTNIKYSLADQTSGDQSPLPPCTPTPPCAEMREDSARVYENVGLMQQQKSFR

CC#Cc1ccc2c(c1)[C@@H](N)C1(CCN(c3nc(N)c(-c4cn(C)c5ncccc45)c(=O)n3C)CC1)C2 [Compound 286]
IC50 [1]: 2 nM
IC50 [2]: 9 nM
IC50 [3]: 10 nM

CC#Cc1ccc2c(c1)[C@@H](N)C1(CCN(c3ncc(Sc4ccnc(N)c4Cl)c(=O)n3C)CC1)C2 [Compound 288]
IC50 [1]: 2 nM
IC50 [2]: 2 nM
IC50 [3]: 4 nM

CC#Cc1ccc2c(c1)[C@@H](N)C1(CCN(c3nc(N)c(Sc4ccnc(N)c4Cl)c(=O)n3C)CC1)C2 [Compound 289]
IC50 [1]: 2 nM
IC50 [2]: 2 nM
IC50 [3]: 4 nM

CCNC(=O)C#Cc1ccc2c(c1)[C@@H](N)C1(CCN(c3ncc(Sc4ccnc(N)c4Cl)nc3C)CC1)C2 [Compound 290]
IC50 [1]: 1 nM
IC50 [2]: 0.3 nM
IC50 [3]: 4 nM

COCC#Cc1ccc2c(c1)[C@@H](N)C1(CCN(c3ncc(Sc4ccnc(N)c4Cl)c(=O)n3C)CC1)C2 [Compound 291]
IC50 [1]: 1 nM
IC50 [2]: 0.3 nM
IC50 [3]: 9 nM

CNC(=O)C#Cc1ccc2c(c1)[C@@H](N)C1(CCN(c3cnc(Sc4ccnc(N)c4Cl)cn3)CC1)O2 [Compound 292]
IC50 [1]: 0.9 nM
IC50 [2]: 1 nM
IC50 [3]: 6 nM

CCNC(=O)C#Cc1ccc2c(c1)[C@@H](N)C1(CCN(c3cnc(Sc4ccnc(N)c4Cl)cn3)CC1)O2 [Compound 293]
IC50 [1]: 1 nM
IC50 [2]: 0.9 nM
IC50 [3]: 5 nM

C#Cc1ccc2c(c1)[C@@H](N)C1(CCN(c3ncc(Sc4ccnc(N)c4Cl)c(=O)n3CC)CC1)C2 [Compound 294]
IC50 [1]: 1 nM
IC50 [2]: 9 nM
IC50 [3]: 18 nM

C#Cc1ccc2c(c1)[C@@H](N)C1(CCN(c3ncc(Sc4ccnc(N)c4Cl)c(=O)n3C)CC1)O2 [Compound 295]
IC50 [1]: 2 nM
IC50 [2]: 4 nM
IC50 [3]: 22 nM

Nc1nccc(Sc2cnc(N3CCC4(CC3)Cc3ccc(C#CC(=O)NC5CC5)cc3[C@H]4N)cn2)c1Cl [Compound 296]
IC50 [1]: 0.3 nM
IC50 [2]: 0.7 nM
IC50 [3]: 2 nM

COCCNC(=O)C#Cc1ccc2c(c1)[C@@H](N)C1(CCN(c3cnc(Sc4ccnc(N)c4Cl)cn3)CC1)C2 [Compound 297]
IC50 [1]: 0.3 nM
IC50 [2]: 0.3 nM
IC50 [3]: 1 nM

COCCNC(=O)C#Cc1ccc2c(c1)[C@@H](N)C1(CCN(c3cnc(Sc4ccnc(N)c4F)cn3)CC1)C2 [Compound 298]
IC50 [1]: 0.3 nM
IC50 [2]: 0.3 nM
IC50 [3]: 1 nM

C#Cc1ccc2c(c1)[C@@H](N)C1(CCN(c3ncc(Sc4ccnc(N)c4Cl)c(=O)n3C)CC1)C2 [Compound 299, (S)-5-((2-amino-3-chloropyridin-4-yl)thio)-2-(1-amino-6-ethynyl-1,3-dihydrospiro[indene-2,4′-piperidin]-1′-yl)-3-methylpyrimidin-4(3H)-one]
IC50 [1]: 1 nM
IC50 [2]: 1 nM
IC50 [3]: 2 nM

COC(=O)C#Cc1ccc2c(c1)[C@@H](N)C1(CCN(c3cnc(Sc4ccnc(N)c4Cl)cn3)CC1)C2 [Compound 300]
IC50 [1]: 1 nM
IC50 [2]: 16 nM
IC50 [3]: 13 nM

COCCN(C)C(=O)C#Cc1ccc2c(c1)[C@@H](N)C1(CCN(c3cnc(Sc4ccnc(N)c4Cl)cn3)CC1)C2 [Compound 301]
IC50 [1]: 0.4 nM
IC50 [2]: 1 nM
IC50 [3]: 5 nM

CN(C)C(=O)C#Cc1ccc2c(c1)[C@@H](N)C1(CCN(c3cnc(Sc4ccnc(N)c4Cl)cn3)CC1)C2 [Compound 302]
IC50 [1]: 0.4 nM
IC50 [2]: 1 nM
IC50 [3]: 5 nM
